Patent US20240199648A1, “MAP4K1 INHIBITORS” (Blueprint Medicines Corporation, priority 2021, published 2024)
Read-outs that look alike come from different tables or passages of the source.

How the values were obtained:
Primary T Cell = assay: T cell enhancement of cytokines: IL2 measurement (HTRF) in expanded CD3+ T cells stimulated with anti-CD3/anti-CD28; assay type: cell-based, human; settings: plate-bound anti-CD3 and soluble anti-CD28, 24 h, read-out: IL-2 Primary T Cell EC50
Method: T cells are isolated from whole blood of healthy donors by immunomagnetic negative selection following manufacture's protocol (StemCell Technologies, human T cell isolation kit). Purity of isolated cells is assessed by flow cytometry and yields 95-98% CD3^+ T cells. For expansion of T cells, 1×10^6 cells/well are plated in serum free cell expansion media (ThermoFisher) containing 30U of recombinant human IL2 (R&D) and stimulated with 25 ul of CD3/CD28 beads (Invitrogen) in 24 well plates for 3-4 days. T cells are then expanded in 175 cm flasks and maintained at a cell density of 1 to 2.5×10^6 cells/ml days by addition of ⅔ of fresh media every 2-3 days. After 10-14 days, cells are frozen in BamBanker freezing media (Thermo) and stored in liquid nitrogen.
For IL2 measurement, expanded CD3+ T cells are dispensed at 100K cells/well (cultured in X-VIVO 10 Serum-free media) and are stimulated with plate-bound anti-CD3 and soluble anti-CD28 in the presence of vehicle or compound of the disclosure at various concentrations for 24 h. As outlined in the manufacturer's protocol (Cisbio), 16 μL of conditioned media is transferred to a white 384-well low volume plate. Following a 24 h incubation with the anti-IL2 antibodies, the homogenous time resolved fluorescence (HTRF) is measured.

MAP4K1 (HPK1) = target: T1, MAP4K1 (HPK1) (Homo sapiens, UniProt Q92918); assay: Inhibition of MAP4K1 biochemical enzymatic activity (EZReader 2 electrophoretic mobility shift assay); settings: HPK1 (Invitrogen), S6K2tide 1.5 μM, 120 min; ATP 26 μM or 1000 μM (not stated which)
T1 construct: purchased Invitrogen
In short: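 Mobility-shift assay: 0.1-15 nM enzyme, 1.5 μM fluorescent peptide, 20-1000 μM ATP (apparent Km or 1 mM) in HEPES pH 7.5, MgCl2, DTT, Brij 35; 60-180 min at 25° C, 1% DMSO. Ten-point 4-fold compound series in duplicate; EDTA-stopped, product/substrate peak ratio read.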

T1 sequence (Q92918 whole entry): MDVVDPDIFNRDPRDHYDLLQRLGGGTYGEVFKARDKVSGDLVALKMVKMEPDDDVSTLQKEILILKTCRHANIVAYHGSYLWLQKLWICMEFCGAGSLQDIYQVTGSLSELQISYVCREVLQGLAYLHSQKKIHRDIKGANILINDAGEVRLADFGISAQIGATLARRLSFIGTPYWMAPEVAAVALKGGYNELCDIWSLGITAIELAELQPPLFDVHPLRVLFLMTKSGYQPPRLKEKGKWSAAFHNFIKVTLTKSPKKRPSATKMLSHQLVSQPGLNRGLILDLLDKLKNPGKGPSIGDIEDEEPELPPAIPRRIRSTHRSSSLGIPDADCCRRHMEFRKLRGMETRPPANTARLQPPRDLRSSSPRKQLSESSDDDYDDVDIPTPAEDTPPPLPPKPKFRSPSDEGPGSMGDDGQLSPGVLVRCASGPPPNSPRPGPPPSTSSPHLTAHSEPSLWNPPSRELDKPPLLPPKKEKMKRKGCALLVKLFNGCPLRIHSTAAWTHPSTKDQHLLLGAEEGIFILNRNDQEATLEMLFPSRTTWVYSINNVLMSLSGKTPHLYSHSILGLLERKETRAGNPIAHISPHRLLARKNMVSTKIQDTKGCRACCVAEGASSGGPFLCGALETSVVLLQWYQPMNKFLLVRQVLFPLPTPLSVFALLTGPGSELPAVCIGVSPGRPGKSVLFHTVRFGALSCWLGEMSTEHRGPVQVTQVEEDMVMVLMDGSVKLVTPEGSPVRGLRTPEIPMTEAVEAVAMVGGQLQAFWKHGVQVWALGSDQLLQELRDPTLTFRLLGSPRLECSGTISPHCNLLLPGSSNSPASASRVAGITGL

Row | SMILES | EC50 (Primary T Cell; Homo sapiens, T-cell, 24 h) | IC50 (MAP4K1 (HPK1)) | EC50 (Primary T Cell)
1 | CC(=O)N1C[C@@H](Oc2ncc(C(C)(C)N)c3cc(Nc4ccc5c(n4)[C@@H](C)[C@H](C)OC5=O)ncc23)[C@@H]1C [Compound 3] | 33.5 nM | 0.33 nM | 
2 | COC[C@@](C)(N)c1ccc(OC2CN(C(C)=O)C2)c2cnc(Nc3ccc4c(n3)[C@@H](C)C(C)(C)OC4=O)cc12 [Compound 56] | 23.8 nM | 0.17 nM | 
3 | CC[C@@](C)(N)c1cnc(OC2CN(C(=O)C3CC3)C2)c2cnc(Nc3ccc4c(n3)[C@@H](C)C(C)(C)OC4=O)cc12 [Compound 70] | 12.5 nM | 0.18 nM | 
4 | CC[C@@H](N)c1cnc(OC2CN(C(=O)C3CC3)C2)c2cnc(Nc3ccc4c(n3)[C@@H](C)C(C)(C)OC4=O)cc12 (stereo in doubt) [Compound 53] | 57.4 nM | 0.54 nM | 

These reach a lower IC50 (MAP4K1 (HPK1)). Values come first.

Row | EC50 (Primary T Cell; Homo sapiens, T-cell, 24 h) | IC50 (MAP4K1 (HPK1)) | EC50 (Primary T Cell) | SMILES
5 | 7.4 nM | 0.11 nM |  | CCCC(C)(N)c1cnc(OC2CN(C(C)=O)C2)c2cnc(Nc3ccc4c(n3)[C@@H](C)[C@H](C)OC4=O)cc12 (single isomer, unassigned) [Compound 113]
6 |  | 0.11 nM | 23.8 nM | CC[C@@H](N)c1ccc(OC2CN(C(=O)[C@@H]3C[C@@H]3F)C2)c2cnc(Nc3ccc4c(n3)[C@@H](C)C(C)(C)OC4=O)cc12 (single isomer, unassigned) [Compound 83, (R)-2-((5-((R)-1-Aminopropyl)-8-((1-((1S,2S)-2-fluorocyclopropane-1-carbonyl)azetidin-3-yl)oxy)isoquinolin-3-yl)amino)-7,7,8-trimethyl-7,8-dihydro-5H-pyrano[4,3-b]pyridin-5-one or (R)-2-((5-((S)-1-aminopropyl)-8-((1-((1S,2S)-2-fluorocyclopropane-1-carbonyl)azetidin-3-yl)oxy)isoquinolin-3-yl)amino)-7,7,8-trimethyl-7,8-dihydro-5H-pyrano[4,3-b]pyridin-5-one]
7 | 19.9 nM | 0.15 nM |  | CC(=O)N1CC(Oc2ncc(C(C)(C)N)c3cc(Nc4ccc5c(n4)[C@@H](C)C(C)(C)OC5=O)ncc23)C1 [Compound 4, (R)-2-((8-((1-Acetylazetidin-3-yl)oxy)-5-(2-aminopropan-2-yl)-2,7-naphthyridin-3-yl)amino)-7,7,8-trimethyl-7,8-dihydro-5H-pyrano[4,3-b]pyridin-5-one]
